The record followed here is ChEMBL document CHEMBL1287704, “Synthesis and biological evaluation of novel leonurine-SPRC conjugate as cardioprotective agents” (Bioorg Med Chem Lett, 2010).

Type in all cases: functional, cell-based
Assay [1] in a line: Cardioprotective activity against hypoxia-induced neonatal rat ventricular myocytes damage assessed as increase in hydrogen sulfide level at 1 uM treated 12 hrs before hypoxia challenge measured after 5 hrs. The following applies: Ventricular myocyte.
Assay [2] has as its system Ventricular myocyte. Kind of assay: Cardioprotective activity against hypoxia-induced neonatal rat ventricular myocytes damage assessed as increased cell viability at 1 uM treated 12 hrs before hypoxia challenge measured after 5 hrs by MTT assay. (In general: Tetrazolium dyes change colour on reduction, which living cells bring about.)
Assay [3] in a line: Cardioprotective activity against hypoxia-induced neonatal rat ventricular myocytes damage assessed as decrease of creatine kinase release at 1 uM treated 12 hrs before hypoxia challenge measured after 5 hrs. The following applies: Ventricular myocyte.
Assay [4] in a line: Cardioprotective activity against hypoxia-induced neonatal rat ventricular myocytes damage assessed as decrease of LDH release at 1 uM treated 12 hrs before hypoxia challenge measured after 5 hrs. The following applies: Ventricular myocyte. In general terms: LDH leaks from cells whose membrane has failed.
Assay [5] in a line: Antiapoptotic activity against hypoxia-induced neonatal rat ventricular myocytes damage assessed as decrease in nuclei-shrunk at 0.1 uM using Hoechst 33258 staining by fluorescence microscopy. The following applies: Ventricular myocyte.
The nature of assay [6]: Cardioprotective activity against hypoxia-induced neonatal rat ventricular myocytes damage assessed as decrease of creatine kinase release at 10 uM treated 12 hrs before hypoxia challenge measured after 5 hrs. The following applies: Ventricular myocyte.
Assay [7] can be described thus: Cardioprotective activity against hypoxia-induced neonatal rat ventricular myocytes damage assessed as decrease of creatine kinase release at 0.1 uM treated 12 hrs before hypoxia challenge measured after 5 hrs. The following applies: Ventricular myocyte.
Assay [8] in a line: Cardioprotective activity against hypoxia-induced neonatal rat ventricular myocytes damage assessed as decrease of LDH release at 0.1 uM treated 12 hrs before hypoxia challenge measured after 5 hrs. The following applies: Ventricular myocyte.
The nature of assay [9]: Antiapoptotic activity against hypoxia-induced neonatal rat ventricular myocytes damage assessed as decrease in nuclear condensation at 0.1 uM using Hoechst 33258 staining by fluorescence microscopy. The following applies: Ventricular myocyte.
Assay [10] deals with Ventricular myocyte. The experiment in a line: Cardioprotective activity against hypoxia-induced neonatal rat ventricular myocytes damage assessed as increased cell viability at 0.1 uM treated 12 hrs before hypoxia challenge measured after 5 hrs by MTT assay.
Assay [11] in a line: Cardioprotective activity against hypoxia-induced neonatal rat ventricular myocytes damage assessed as increase in hydrogen sulfide level at 0.1 uM treated 12 hrs before hypoxia challenge measured after 5 hrs. The following applies: Ventricular myocyte.
Assay [12] can be described thus: Cardioprotective activity against hypoxia-induced neonatal rat ventricular myocytes damage assessed as decrease in malondialdehyde level at 0.1 uM treated 12 hrs before hypoxia challenge measured after 5 hrs. The following applies: Ventricular myocyte.
The nature of assay [13]: Cardioprotective activity against hypoxia-induced neonatal rat ventricular myocytes damage assessed as decrease of LDH release at 10 uM treated 12 hrs before hypoxia challenge measured after 5 hrs. The following applies: Ventricular myocyte.
The test system of assay [14] is Ventricular myocyte. Kind of assay: Cardioprotective activity against hypoxia-induced neonatal rat ventricular myocytes damage assessed as increased cell viability at 10 uM treated 12 hrs before hypoxia challenge measured after 5 hrs by MTT assay.
Assay [15] in a line: Cardioprotective activity against hypoxia-induced neonatal rat ventricular myocytes damage assessed as increase in superoxide dismutase activity against 0.1 uM treated 12 hrs before hypoxia challenge measured after 5 hrs. The following applies: Ventricular myocyte.
Assay [16] is described as follows: Cardioprotective activity against hypoxia-induced neonatal rat ventricular myocytes damage assessed as increase in hydrogen sulfide level at 10 uM treated 12 hrs before hypoxia challenge measured after 5 hrs. The following applies: Ventricular myocyte.

Active and inactive are the calls of the source. The calls are words filed in the database; no cut-off is given here.

For `COc1cc(C(=O)OCCCCNC(=N)N)cc(OC)c1O`, in [1], the result was inactive. Also, the result (in the assay on Ventricular myocyte [2]; in [3]; in assay [4]) was Active.
As to `C#CCSC[C@H](N)C(=O)Oc1c(OC)cc(C(=O)OCCCCNC(=N)N)cc1OC`, the result (in assay [5]; in assay [6]; in assay [7]; in assay [8]; in assay [9]; in the assay on Ventricular myocyte [2]) was Active. Also, the outcome (in assay [12]; in [13]; in assay [3]; in [4]; with Ventricular myocyte [14]; in [15]) was Active. Further, the Activity result with Ventricular myocyte [10] is “Non-toxic”; in assay [11] it was 21.5 µmol/L.
For the molecule `C#CCSC[C@H](N)C(=O)O`, the result (in assay [6]; in assay [13]; with Ventricular myocyte [14]) was Active. Besides, the Activity in assay [16] turned out to be 20.2 µmol/L.
